# From ChEMBL document CHEMBL6114940, “Exploring the pharmaceutical potential of ammonium organotrifluoroborate functional group: Comprehensive chemical, metabolic, and plasma stability evaluation” (Eur J Med Chem, 2024)
# Activity calls are given as the source filed them. The calls are words filed in the database; no cut-off is given here.
# Legend:
# [1] = Stability of compound in 20 mM CH3COONH4 buffer at pH 5.8 assessed as half life incubated for 72 hrs by LC-MS analysis; format: physicochemical; details: 20 mM ammonium acetate (CH3COONH4) buffer
# [2] = test system: U-87 MG; assay: Cytotoxicity against human U-87 MG assessed as reduction in cell viability at 300 uM incubated for 24 to 72 hrs by MTT assay relative to control; format: functional, U-87MG ATCC; details: time 24-72 hrs
# [3] = Stability of compound in 0.9 % saline solution assessed as half life incubated for 72 hrs by LC-MS analysis; format: physicochemical
# [4] = Stability of compound in 0.5 M NaOH assessed as N,N,N-trimethyl-1-(1-((3R,4R,5S,6R)-2,4,5-trihydroxy-6-(hydroxymethyl)tetrahydro-2H-pyran-3-yl)-1H-1,2,3-triazol-4-yl)methanaminium formation incubated for 72 hrs by LC-MS analysis; format: physicochemical
# [5] = Stability of compound in 0.05 M HCL assessed as solvolysis constant (K) incubated for 72 hrs by LC-MS analysis; format: physicochemical; parameters: unit not given beside the values; details: buffer
# [6] = Stability of compound at pH 7.5 in phosphate buffer at 2 mg/ml; format: physicochemical
# [7] = test system: U-87 MG; assay: Cytotoxicity against human U-87 MG assessed as reduction in cell viability upto 100 uM incubated for 24 to 72 hrs by MTT assay; format: functional, cell-based; details: U-87MG ATCC, time 24-72 hrs
# [8] = test system: Fibroblast; assay: Cytotoxicity against human fibroblast assessed as reduction in cell viability at 300 uM incubated for 24 to 72 hrs by MTT assay relative to control; format: toxicity, cell-based; details: time 24-72 hrs
# [9] = Stability of compound in 0.05 M HCL assessed as half life incubated for 72 hrs by LC-MS analysis; format: physicochemical
# [10] = Stability of compound in 20 mM CH3COONH4 buffer at pH 5.8 assessed as solvolysis constant (K) incubated for 72 hrs by LC-MS analysis; format: physicochemical; parameters: unit not given beside the values; details: pH 5.8, 72 h
# [11] = Metabolic stability in mouse liver microsomes assessed as drug hydrolysis by measuring 1-borono-N,N-dimethyl-N-((1-((3R,4R,5S,6R)-2,4,5-trihydroxy-6-(hydroxymethyl)tetrahydro-2H-pyran-3-yl)-1H-1,2,3-triazol-4-yl)methyl)methanaminium formation incubated for 1 hrs by LC-MS/MS analysis; format: ADME, Microsome
# [12] = Stability of compound in 0.3 % H2O2 assessed as (3R,4R,5S,6R)-3-(4-((dimethylamino)methyl)-1H-1,2,3-triazol-1-yl)-6-(hydroxymethyl)tetrahydro-2H-pyran-2,4,5-triol formation incubated for 1 hrs by LC-MS analysis; format: physicochemical
# [13] = Stability of compound in 0.9 % saline solution assessed as 1-borono-N,N-dimethyl-N-((1-((3R,4R,5S,6R)-2,4,5-trihydroxy-6-(hydroxymethyl)tetrahydro-2H-pyran-3-yl)-1H-1,2,3-triazol-4-yl)methyl)methanaminium formation incubated for 72 hrs by LC-MS analysis; format: physicochemical; details: buffer
# [14] = test system: A-375; assay: Cytotoxicity against human A-375 assessed as reduction in cell viability at 0.1 to 300 uM incubated for 72 hrs by MTT assay; format: functional, cell-based; details: dose 0.1-300 µM
# [15] = Stability of compound in 0.5 M NaOH assessed as 1-borono-N,N-dimethyl-N-((1-((3R,4R,5S,6R)-2,4,5-trihydroxy-6-(hydroxymethyl)tetrahydro-2H-pyran-3-yl)-1H-1,2,3-triazol-4-yl)methyl)methanaminium formation incubated for 72 hrs by LC-MS analysis; format: physicochemical
# [16] = test system: U-87 MG; assay: Cytotoxicity against human U-87 MG assessed as reduction in cell viability at 0.1 to 300 uM incubated for 24 to 48 hrs by MTT assay; format: functional, cell-based; details: U-87MG ATCC, dose 0.1-300 µM, time 24-48 hrs
# [17] = Stability of compound in 0.5 M NaOH assessed as half life incubated for 72 hrs by LC-MS analysis; format: physicochemical
# [18] = test system: Fibroblast; assay: Cytotoxicity against human fibroblast assessed as reduction in cell viability at 0.1 to 300 uM incubated for 24 to 48 hrs by MTT assay; format: toxicity, cell-based; details: dose lower 0.1 µM, time lower 24 hrs, dose upper 300 µM, time upper 48 hrs
# [19] = test system: A-375; assay: Cytotoxicity against human A-375 assessed as reduction in cell viability at 0.1 to 300 uM incubated for 24 to 48 hrs by MTT assay; format: functional, cell-based; details: dose 0.1-300 µM, time 24-48 hrs
# [20] = test system: Fibroblast; assay: Cytotoxicity against human fibroblast assessed as reduction in cell viability at 0.1 to 300 uM incubated for 72 hrs by MTT assay; format: toxicity, cell-based; details: dose 0.1-300 µM
# [21] = test system: Fibroblast; assay: Cytotoxicity against human fibroblast assessed as reduction in cell viability upto 100 uM incubated for 24 to 72 hrs by MTT assay; format: toxicity, cell-based; details: time 24-72 hrs
# [22] = Stability in mouse plasma measured after 1 hr by LC-HRMS analysis; format: ADME, cell-free; details: read-out: Stability
# [23] = Stability of compound in 50 mM Tris-HCL buffer at pH 7.4 assessed as 1-borono-N,N-dimethyl-N-((1-((3R,4R,5S,6R)-2,4,5-trihydroxy-6-(hydroxymethyl)tetrahydro-2H-pyran-3-yl)-1H-1,2,3-triazol-4-yl)methyl)methanaminium formation incubated for 72 hrs by LC-MS analysis; format: physicochemical; details: pH 7.4, 72 h
# [24] = test system: U-87 MG; assay: Cytotoxicity against human U-87 MG assessed as reduction in cell viability at 0.1 to 300 uM incubated for 72 hrs by MTT assay; format: functional, cell-based; details: U-87MG ATCC, dose 0.1-300 µM
# [25] = Stability of compound in 50 mM Tris-HCL buffer at pH 7.4 assessed as half life incubated for 72 hrs by LC-MS analysis; format: physicochemical
# [26] = Stability of compound in 50 mM Tris-HCL buffer at pH 7.4 assessed as solvolysis constant (K) incubated for 72 hrs by LC-MS analysis; format: physicochemical; details: pH 7.4, 72 h
# [27] = Stability of compound in 20 mM CH3COONH4 buffer at pH 5.8 assessed as 1-borono-N,N-dimethyl-N-((1-((3R,4R,5S,6R)-2,4,5-trihydroxy-6-(hydroxymethyl)tetrahydro-2H-pyran-3-yl)-1H-1,2,3-triazol-4-yl)methyl)methanaminium formation incubated for 72 hrs by LC-MS analysis; format: physicochemical; details: pH 5.8, 72 h
# [28] = test system: A-375; assay: Cytotoxicity against human A-375 assessed as reduction in cell viability upto 100 uM incubated for 24 to 72 hrs by MTT assay; format: functional, cell-based; details: time 24-72 hrs
# [29] = Stability of compound in 0.5 M NaOH assessed as solvolysis constant (K) incubated for 72 hrs by LC-MS analysis; format: physicochemical; parameters: unit not given beside the values
# [30] = Stability of compound in 0.9 % saline solution assessed as solvolysis constant (K) incubated for 72 hrs by LC-MS analysis; format: physicochemical; details: buffer
# [31] = Stability of compound in 0.05 M HCL assessed as 1-borono-N,N-dimethyl-N-((1-((3R,4R,5S,6R)-2,4,5-trihydroxy-6-(hydroxymethyl)tetrahydro-2H-pyran-3-yl)-1H-1,2,3-triazol-4-yl)methyl)methanaminium formation incubated for 72 hrs by LC-MS analysis; format: physicochemical; details: buffer
# [32] = test system: A-375; assay: Cytotoxicity against human A-375 assessed as reduction in cell viability at 300 uM incubated for 24 to 72 hrs by MTT assay relative to control; format: functional; details: time 24-72 hrs
# [33] = Stability of compound in 0.9 % saline solution assessed as N-(boronomethyl)-N-butyl-N-(2-(2-(2-(((2R,3R,4S,5S,6R)-3,4,5-trihydroxy-6-(hydroxymethyl)tetrahydro-2H-pyran-2-yl)oxy)ethoxy)ethoxy)ethyl)butan-1-aminium formation incubated for 72 hrs by LC-MS analysis; format: physicochemical; details: buffer
# [34] = Stability of compound in 0.3 % H2O2 assessed as (2R,3R,4S,5S,6R)-2-(2-(2-(2-(dibutylamino)ethoxy)ethoxy)ethoxy)-6-(hydroxymethyl)tetrahydro-2H-pyran-3,4,5-triol formation incubated for 1 hrs by LC-MS analysis; format: physicochemical
# [35] = Metabolic stability in mouse liver microsomes assessed as drug hydrolysis by measuring N-(boronomethyl)-N-butyl-N-(2-(2-(2-(((2R,3R,4S,5S,6R)-3,4,5-trihydroxy-6-(hydroxymethyl)tetrahydro-2H-pyran-2-yl)oxy)ethoxy)ethoxy)ethyl)butan-1-aminium formation incubated for 1 hr by LC-MS/MS analysis; format: ADME, Microsome
# [36] = Stability of compound in 0.5 M NaOH assessed as N-butyl-N-methyl-N-(2-(2-(2-(((2R,3R,4S,5S,6R)-3,4,5-trihydroxy-6-(hydroxymethyl)tetrahydro-2H-pyran-2-yl)oxy)ethoxy)ethoxy)ethyl)butan-1-aminium formation incubated for 72 hrs by LC-MS analysis; format: physicochemical
# [37] = Stability of compound in 20 mM CH3COONH4 buffer at pH 5.8 assessed as N-(boronomethyl)-N-butyl-N-(2-(2-(2-(((2R,3R,4S,5S,6R)-3,4,5-trihydroxy-6-(hydroxymethyl)tetrahydro-2H-pyran-2-yl)oxy)ethoxy)ethoxy)ethyl)butan-1-aminium formation incubated for 72 hrs by LC-MS analysis; format: physicochemical; details: pH 5.8, 72 h
# [38] = Stability of compound in phosphate/D2O buffer at pH 7.4 assessed as drug hydrolysis by measuring N-(boronomethyl)-N-butyl-N-(2-(2-(2-(((2R,3R,4S,5S,6R)-3,4,5-trihydroxy-6-(hydroxymethyl)tetrahydro-2H-pyran-2-yl)oxy)ethoxy)ethoxy)ethyl)butan-1-aminium formation incubated for 72 hrs by LC-MS analysis; format: physicochemical; details: pH 7.4, 72 h
# [39] = Stability of compound in 0.5 M NaOH assessed as N-(boronomethyl)-N-butyl-N-(2-(2-(2-(((2R,3R,4S,5S,6R)-3,4,5-trihydroxy-6-(hydroxymethyl)tetrahydro-2H-pyran-2-yl)oxy)ethoxy)ethoxy)ethyl)butan-1-aminium formation incubated for 72 hrs by LC-MS analysis; format: physicochemical
# [40] = Stability of compound in 50 mM HCL assessed as N-(boronomethyl)-N-butyl-N-(2-(2-(2-(((2R,3R,4S,5S,6R)-3,4,5-trihydroxy-6-(hydroxymethyl)tetrahydro-2H-pyran-2-yl)oxy)ethoxy)ethoxy)ethyl)butan-1-aminium formation incubated for 72 hrs by LC-MS analysis; format: physicochemical; details: buffer
# [41] = Stability of compound in Tris-HCL buffer at pH 7.4 assessed as N-(boronomethyl)-N-butyl-N-(2-(2-(2-(((2R,3R,4S,5S,6R)-3,4,5-trihydroxy-6-(hydroxymethyl)tetrahydro-2H-pyran-2-yl)oxy)ethoxy)ethoxy)ethyl)butan-1-aminium formation incubated for 72 hrs by LC-MS analysis; format: physicochemical; details: pH 7.4, 72 h
smiles,measurement,setting,value
C[N+](C)(Cc1cn([C@@H]2[C@@H](O)[C@H](O)[C@@H](CO)O[C@@H]2O)nn1)C[B-](F)(F)F,half-life,[1],~0.0794 h
same,Activity,[2],-15%
same,half-life,[3],18.3 h
same,Stability,[4],Stable
same,K,[5],0.766
same,Stability,[6],Stable
same,Activity,[7],Active
same,Activity,[8],-15%
same,half-life,[9],0.904 h
same,K,[10],8.731
same,Drug metabolism,[11],metabolite_detected
same,Stability,[12],Stable
same,Stability,[13],Stable
same,Activity,[14],Active
same,Stability,[15],Stable
same,Activity,[16],Active
same,half-life,[17],≥ 20.9 h
same,Activity,[18],Non-toxic
same,Activity,[19],Active
same,Activity,[20],Non-toxic
same,Activity,[21],Non-toxic
same,remaining at 1 h,[22],4.15%
same,Stability,[23],Stable
same,Activity,[24],Active
same,half-life,[25],25 h
same,K,[26],0.017
same,Stability,[27],Stable
same,Activity,[28],Active
same,K,[29],0.016
same,K,[30],0.038
same,Stability,[31],Stable
same,Activity,[32],-15%
CCCC[N+](CCCC)(CCOCCOCCO[C@@H]1O[C@H](CO)[C@@H](O)[C@H](O)[C@H]1O)C[B-](F)(F)F,half-life,[1],22.8 h
same,half-life,[3],6.82 h
same,K,[5],2.617
same,half-life,[9],0.265 h
same,Stability,[33],Stable
same,K,[10],0.03
same,Stability,[34],Stable
same,Drug metabolism,[35],metabolite_detected
same,half-life,[17],8.47 h
same,Stability,[36],Stable
same,Stability,[37],Stable
same,remaining at 1 h,[22],8.89%
same,Stability,[38],Stable
same,half-life,[25],8.07 h
same,Stability,[39],Stable
same,K,[26],0.086
same,Stability,[40],Stable
same,K,[29],0.082
same,K,[30],0.102
same,Stability,[41],Stable
